The values that follow come from article PMC4945466 (Journal of medicinal chemistry, 2016).

Where two headings read alike, the source gives them in different places.

The target of series [1] is recombinant HIV-1 IN (integrase strand transfer) (Human immunodeficiency virus type 1 group M subtype B, UniProt P04585). The series can be described thus: INST biochemical assay.
Series [2] relates to CEM-SS cells. Kind of series: Cell viability / cytotoxicity in cytoprotection assay. In kind it is cell-based.
Series [3] relates to HIV-1 IIIB in CEM-SS cells. The series can be described thus: microbe, parasite or virus in culture. In kind it is cell-based. The following applies: for Antiviral Screening (10 μM) CPE reduction %: HIV-1 IIIB in CEM-SS cells, versus viral control.
The nature of series [4]: Cell viability / cytotoxicity in cytoprotection assay. To be noted: human. In kind it is cell-based.
Where [5] appears, read: read-out: INST IC50, mean ± SD, at least three independent experiments.

For the compound `CCNc1[nH]c(=O)n(O)c(=O)c1C(=O)Oc1ccccc1` [Compound 51, Phenyl-1-(hydroxy)-4-(ethylamino)-1,2,3,6-tetrahydro-2,6-dioxopyrimidine-5-carboxylate], the half-inhibitory concentration (IC50) (as a rule, the point on the concentration scale where inhibition reaches its midpoint) in series [1] was more than 100 µM.
Consider “3-(Benzyloxy)-6-(ethylamino)-N-(4-fluorobenzyl)-N-methyl-2,4-dioxo-1,2,3,4-tetrahydropyrimidine-5-carboxamide [Compound 53]”, for which, in series [2] (10 µM), the “Antiviral Screening (10 μM) viability %” value stood at 89%. Moreover, the “Antiviral Screening (10 μM) CPE reduction %” value in series [3] is reported as 0%. In addition, in series [1] (setting [5]), the half-maximal inhibitory concentration (IC50) is 7 ± 3.3 µM.
Regarding `O=C(NCc1ccccc1)c1c(O)n(O)c(=O)[nH]c1=O` [Compound 54, N-Benzyl-1,6-dihydroxy-2,4-dioxo-1,2,3,4-tetrahydropyrimidine-5-carboxamide], in series [4], the viability (in general, the share of living cells, or the viability signal relative to a control) at 6 days, 10 µM is 100%. Moreover, the inhibition at 10 µM in series [3] (Human immunodeficiency virus 1, IIIB, CEM-SS, 144 h, read-out: Antiviral Screening (10 μM) CPE reduction %) was 26%.
With `CCNc1c(C(=O)NCc2ccc(F)cc2)c(=O)n(O)c(=O)n1C` [Compound 52, N-(4-Fluorobenzyl)-3-(hydroxy)-6-(ethylamino)-1,2,3,4-tetrahydro-1-methyl-2,4-dioxopyrimidine-5-carboxamide], in series [1], the IC50 is more than 100 µM.
The same measure, in the same setting: then `CCNc1[nH]c(=O)n(O)c(=O)c1C(=O)NCCCl` [Compound 50, 1-(Hydroxy)-N-(2-chloroethyl)-4-(ethylamino)-1,2,3,6-tetrahydro-2,6-dioxopyrimidine-5-carboxamide], with more than 100 µM.
With `O=C(NCc1ccccc1)c1c(Nc2ccccc2)[nH]c(=O)n(O)c1=O` [Compound 24, N-Benzyl-1-(hydroxy)-1,2,3,6-tetrahydro-2,6-dioxo-4-(phenylamino)pyrimidine-5-carboxamide], the IC50 in series [1] was more than 100 µM.
Same read-out and setting: then `O=C(NCc1ccccc1)c1c(Nc2ccc(-c3ccccc3)cc2)[nH]c(=O)n(O)c1=O` [Compound 25, N-Benzyl-1-(hydroxy)-1,2,3,6-tetrahydro-2,6-dioxo-4-(biphenylamino)pyrimidine-5-carboxamide], with more than 100 µM.
In the case of `CCNc1[nH]c(=O)n(O)c(=O)c1C(=O)NCc1ccc(Cl)c(F)c1` [Compound 44, N-(4-Chloro-3-fluorobenzyl)-1-(hydroxy)-4-(ethylamino)-1,2,3,6-tetrahydro-2,6-dioxopyrimidine-5-carboxamide], the “TI (therapeutic index, CC50/EC50)” value in series [3] (cytoprotection assay, CEM-SS cells) was determined as 100.
Turning to “1-(Hydroxy)-1,2,3,6-tetrahydro-2,6-dioxo-4-(phenylamino)pyrimidine-5-carboxamide [Compound 49]”, the IC50 in series [1] (setting [5]) was more than 100 µM.
On to `CCNc1[nH]c(=O)n(O)c(=O)c1C(=O)NCc1ccc(F)c(F)c1` [Compound 42, N-(3,4-difluorobenzyl)-1-(hydroxy)-4-(ethylamino)-1,2,3,6-tetrahydro-2,6-dioxopyrimidine-5-carboxamide], for which, in series [2] (10 μM, CEM-SS cells, versus cell control), the “Antiviral Screening (10 μM) viability %” value was “cytotoxic”. Besides, the “Antiviral Screening (10 μM) CPE reduction %” value in series [3] was “inactive”.
